Data from US20130310374A1, “Substituted Imidazoquinoline Derivatives” (PIRAMAL ENTERPRISES LIMITED`, priority 2010, published 2013).

Tests used:
A2780 = assay: Cytotoxicity propidium iodide assay, A2780; format: cell-based; conditions: Homo sapiens; A2780 (ovarian), 48 hours treatment; read-out: IC50 Values in μM, C1a
Summary of the method: (§1)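 Read-out: propidium iodide fluorescence after freeze-thaw, with untreated wells set to 100% viability and IC50 taken from the plotted percentages. Cells (3000/well) were pre-incubated 18-24 h, then treated 48 h with a range of compound concentrations.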

PC3 = assay: Cytotoxicity propidium iodide assay, PC3; format: cell-based, human; conditions: Homo sapiens, PC-3; PC3 (prostate), 48 hours treatment; read-out: IC50 Values in μM, C2a
Summary of the method: as §1

MDA MB 231 = assay: Cytotoxicity propidium iodide assay, MDA MB 231; format: cell-based; conditions: Homo sapiens; MDA MB 231 (breast), 48 hours treatment; read-out: IC50 Values in μM, C3a
Description: (§2) The assay was designed as in the reference, Anticancer Drugs, 2002, 13, 1-8, the disclosure of which is incorporated herein by reference for the teaching of the assay.
(§3) Cells from cell lines (ATCC) as mentioned in the table given below were seeded at a density of 3000 cells/well in a white opaque 96-well plate. Following incubation at 37° C./5% CO2 for a period of 18-24 hours, the cells were treated with various concentrations (stock solution was prepared in DMSO and subsequent dilutions were made in media as per ATCC guidelines) of the compounds of the present invention for a period of 48 hours. At the end of treatment, the culture medium was discarded, the cells were washed with 1×PBS and 200 μL of […] propidium iodide was added to each well. […] For analysis, the plates were warmed to RT, allowed to thaw and were read in PoleStar fluorimeter with the fluorescence setting. The percentage of viable cells in the non-treated set of wells was considered to be 100 and the percentage viability following treatment was calculated accordingly. IC50 values were calculated from graphs plotted using these percentages. IC50 values for certain compounds of present invention are depicted in Table 1 and % Inhibition of certain compounds of present invention are depicted in Table 2.

MDA MB 468 = assay: Cytotoxicity propidium iodide assay, MDA MB 468; format: cell-based; conditions: Homo sapiens; MDA MB 468 (breast), 48 hours treatment; read-out: IC50 Values in μM, C3b
Description: as §2
(§4) Cells from cell lines (ATCC) as mentioned in the table given below were seeded at a density of 3000 cells/well in a white opaque 96-well plate. Following incubation at 37° C./5% CO2 for a period of 18-24 hours, the cells were treated with various concentrations (stock solution was prepared in DMSO and subsequent dilutions were made in media as per ATCC guidelines) of the compounds of the present invention for a period of 48 hours. At the end of treatment, the culture medium was discarded, the cells were washed with 1×PBS and 200 μL of […] propidium iodide was added to each well. The plates were frozen at […] overnight. For analysis, the plates were warmed to RT, allowed to thaw and were read in PoleStar fluorimeter with the fluorescence setting. The percentage of viable cells in the non-treated set of wells was considered to be 100 and the percentage viability following treatment was calculated accordingly. IC50 values were calculated from graphs plotted using these percentages. IC50 values for certain compounds of present invention are depicted in Table 1 and % Inhibition of certain compounds of present invention are depicted in Table 2.

BT 549 = assay: Cytotoxicity propidium iodide assay, BT 549; format: cell-based; conditions: Homo sapiens; BT 549 (breast), 48 hours treatment; read-out: IC50 Values in μM, C3c
Description: as §2, §4

MCF7 = assay: Cytotoxicity propidium iodide assay, MCF7; format: cell-based; conditions: Homo sapiens; MCF7 (breast), 48 hours treatment; read-out: IC50 Values in μM, C3d
Description: as §2, §4

PANC 1 = assay: Cytotoxicity propidium iodide assay, PANC 1; format: cell-based; conditions: Homo sapiens; PANC 1 (pancreatic), 48 hours treatment; read-out: IC50 Values in μM, C4a
Description: as §2, §4

AsPC 1 = assay: Cytotoxicity propidium iodide assay, AsPC 1; format: cell-based; conditions: Homo sapiens, ASPC1; AsPC 1 (pancreatic), 48 hours treatment; read-out: IC50 Values in μM, C4b
Description: as §2, §3

BxPC3 = assay: Cytotoxicity propidium iodide assay, BxPC3; format: cell-based; conditions: Homo sapiens, BXPC-3; BxPC3 (pancreatic), 48 hours treatment; read-out: IC50 Values in μM, C4c
Description: as §2, §4

K562 = assay: Cytotoxicity propidium iodide assay, K562; format: cell-based; conditions: Homo sapiens; K562 (CML), 48 hours treatment; read-out: IC50 Values in μM, C6a
Description: as §2, §4

T315I = assay: Cytotoxicity propidium iodide assay, T315I; format: cell-based; conditions: T315I (CML), 48 hours treatment; read-out: IC50 Values in μM, C6b
Description: as §2, §4

KU812/SR = assay: Cytotoxicity propidium iodide assay, KU812/SR; format: cell-based; conditions: Homo sapiens; KU812/SR (CML), 48 hours treatment; read-out: IC50 Values in μM, C6c
Description: as §2, §4

KU812 = assay: Cytotoxicity propidium iodide assay, KU812; format: cell-based; conditions: Homo sapiens; KU812 (CML), 48 hours treatment; read-out: IC50 Values in μM, C6d
Description: as §2, §4

KCL22/SR = assay: Cytotoxicity propidium iodide assay, KCL22/SR; format: cell-based; conditions: Homo sapiens, KCL-22; KCL22/SR (CML), 48 hours treatment; read-out: IC50 Values in μM, C6e
Description: as §2, §4

KCL22 = assay: Cytotoxicity propidium iodide assay, KCL22; format: cell-based; conditions: Homo sapiens, KCL-22; KCL22 (CML), 48 hours treatment; read-out: IC50 Values in μM, C6f
Description: as §2, §3

`COc1ccc(-n2c(=O)n(C)c3cnc4ccc(-c5cnc6ccccc6c5)cc4c32)cn1` [Example 20, 1-(6-Methoxypyridin-3-yl)-3-methyl-8-(quinolin-3-yl)-1H-imidazo[4,5-c]quinolin-2(3H)-one] was tested. Which IC50 (A2780) did it give?
The IC50 was 0.07 µM.

And the IC50 (PC3)?
Its IC50 is 0.27 µM.

What about the IC50 (MDA MB 231) of the same molecule?
The IC50 was 0.37 µM.

And the IC50 (MDA MB 468)?
The IC50 was 0.47 µM.

What about the IC50 (BT 549) of the same molecule?
The IC50 was 1 µM.

What about the IC50 (MCF7) of the same molecule?
Its IC50 is 0.55 µM.

And the IC50 (PANC 1)?
The IC50 was 0.25 µM.

And the IC50 (AsPC 1)?
The IC50 was 0.4 µM.

And the IC50 (BxPC3)?
Its IC50 is 0.45 µM.

And the IC50 (K562)?
The IC50 was 0.1 µM.

What about the IC50 (T315I) of the same molecule?
The IC50 was 1.96 µM.

And the IC50 (KU812/SR)?
Its IC50 is 5.44 µM.

What about the IC50 (KU812) of the same molecule?
The IC50 was 1.99 µM.

And the IC50 (KCL22/SR)?
The IC50 was 1.09 µM.

What about the IC50 (KCL22) of the same molecule?
The IC50 was 2.86 µM.

Which IC50 (A2780) does the source give for `Cn1c(=O)n(CCN2CCOCC2)c2c3cc(-c4cnc5ccccc5c4)ccc3ncc21` [Example 70, 3-Methyl-1-(2-morpholinoethyl)-8-(quinolin-3-yl)-1H-imidazo[4,5-c]quinolin-2(3H)-one] here?
Its IC50 is 0.3 µM.

And the IC50 (PC3)?
The IC50 was 0.9 µM.

What about the IC50 (MDA MB 231) of the same molecule?
The IC50 was 0.7 µM.

What about the IC50 (MDA MB 468) of the same molecule?
Its IC50 is 1.1 µM.

What about the IC50 (BT 549) of the same molecule?
Its IC50 is 2.1 µM.

What about the IC50 (MCF7) of the same molecule?
The IC50 was 0.7 µM.

What about the IC50 (PANC 1) of the same molecule?
The IC50 was 1 µM.

And the IC50 (AsPC 1)?
Its IC50 is 1.6 µM.

And the IC50 (BxPC3)?
The IC50 was 0.7 µM.

What about the IC50 (K562) of the same molecule?
Its IC50 is 0.7 µM.

And the IC50 (T315I)?
The IC50 was 2.56 µM.

What about the IC50 (KU812/SR) of the same molecule?
Its IC50 is 3.38 µM.

What about the IC50 (KU812) of the same molecule?
Its IC50 is 4 µM.

What about the IC50 (KCL22/SR) of the same molecule?
Its IC50 is 1.57 µM.

And the IC50 (KCL22)?
The IC50 was 2.17 µM.
